pIC50: −log10 of the molar value.
How the values were obtained:
[1] = test system: PGE1-induced cAMP levels in platelets; assay: augmentation of PGE1-induced cAMP levels in platelets; format: cell-based, human; settings: in words
Protocol: (A) Compound was tested for its ability to inhibit SFLLR-, U46619-, ADP-, PMA-, and collagen I-induced platelet α-granule secretion. (B) The effect of the compound on PGE1-stimulated cAMP elevation was analyzed. Platelets were incubated with increasing doses of pyridazinone compound for 30 minutes prior to the 2 minute incubation with PGE1. Platelets were subsequently lysed and cAMP level was assayed using a commercially available ELISA kit (Liao et al., 1998, Eur J Pharmacol 349, 107–14). […] Error bars represent mean ±1 SD (n=4), *P<0.001.
One frequent target of anti-platelet agents is phosphodiesterase III (PDE III). […] The assay is performed as described by Liao et al., 1998, Eur J Pharmacol 349,107–114, incorporated herein by reference. Briefly, aliquots of PRP are exposed to increasing concentrations of the agent for 20 minutes. The PRP is then challenged with 1 μM PGE1 for 2 min The reaction is stopped by adding 10 mM EDTA, followed immediately by boiling for 2 min. The mixture is cooled to 4° C. and the precipitated protein is pelleted. cAMP content in the supernatant is quantitated using an enzyme immunoassay kit (Pharmacia-Amersham, NJ) according to the instructions of the manufacturer.
In order to assess whether the compounds useful according to the invention might act through inhibition phosphodiesterase III, each was tested for its effect on PGE1-induced cAMP increase. Determination of platelet cAMP levels was performed as described by Liao et al., 1998, supra. Aliquots of PRP were exposed to increasing concentrations of the indicated compounds for 20 min. PRP was then challenged with 1 μM PGE1 for 2 min. The reaction was stopped with the addition of 10 mM EDTA followed immediately by boiling for 2 min. The mixture was then cooled to 4° C. and the precipitated protein was pelleted. Cyclic AMP content in the supernatant was then quantified using an enzyme immunoassay kit (Pharmacia-Amersham, NJ) according to the instructions of the manufacturer.

human platelet PDE5 = target: T1, human platelet PDE5 (Homo sapiens, UniProt O76074); assay: phosphodiesterase inhibition, PDE5; format: biochemical; settings: up to 1 μM, in words
T1 construct: from tissue; host or cells: human platelets
Protocol: (§1) Intracellular cAMP generated by adenylyl cyclase in platelets is actively hydrolyzed by phosphodiesterase. […] Human platelets express PDE2, PDE3, and PDE5. Therefore, the compound was tested for its inhibitory effect on these phosphodiesterases using methods as described in Example 3.

platelets = assay: platelet aggregation (aggregometer); format: cell-based, human; settings: in words
Protocol: Platelet aggregation profiling is a standard methodology, generally performed with an instrument adapted for that express purpose, for example, a Platelet Aggregation Profiler (BioData, Horsham, Pa.). The assays can generally be performed according to the instructions of the manufacturer. As exemplary conditions, 400 μl of PRP are incubated with inhibitor for 15 minutes at room temperature. The sample is then incubated for 3 minutes at 37° C. in the Platelet Aggregation Profiler. The instrument is calibrated with platelet poor plasma serving as a blank. A baseline tracing is established by monitoring the light transmittance of PRP being stirred at 1200 rpm. Aggregation is initiated by the addition of SFLLR (200 μM) and the percent of platelet aggregation is measured by the change in light transmittance for 6 minutes following addition of SFLLR.

human platelet PDE3 = target: T2, human platelet PDE3 (Homo sapiens, UniProt Q14432); assay: phosphodiesterase inhibition, PDE3; format: biochemical
T2 construct: from tissue; host or cells: human platelets
Protocol: as §1

platelet GPIIbIIIa = assay: SFLLR-induced GPIIbIIIa activation (PAC-1 antibody, flow cytometry); format: cell-based, human; settings: in words
Protocol: In order to assay platelet activation by cell surface marker expression, fresh PRP is isolated from donors who have not ingested aspirin for two weeks prior to donation. PRP (40 μl) is incubated with known or suspected inhibitor in DMSO or DMSO alone for 15 min. The sample is then incubated with the indicated agonist (e.g., SFLLR) for 10 min. Following incubation of the sample with the indicated agonist, 10 μl of reaction mixture is transferred to 5 μl of phycoerythrin (PE)-conjugated AC 1.2 anti-P-selectin antibody (for assessment of P-selectin surface expression) or fluorescein isothiocyanate (FITC)-conjugated PAC-1 antibody (for assessment of GPIIbIIIa activation). PBS (500 μl) is added to the sample after a 20 min incubation and the platelets are analyzed immediately by flow cytometry. […] A 530/30 band pass filter is used for FL-1 fluorescence. A 585/42 band pass filter is used for FL-2 fluorescence. FITC is measured in the FL-1 channel and PE is measured in the FL-2 channel. Data are analyzed using, for example, CellQuest software on a Macintosh PowerPC, or their equivalents.
Compounds were also tested by flow cytometry for the inhibition of SFLLR-induced GPIIbIIIa activation and P-selectin expression. […] PBS (500 μl) was added to the sample after a 20 min incubation and the platelets were analyzed immediately by flow cytometry. […] A 530/30 band pass filter was used for FL-1 fluorescence. […]

[2] = listed as Pyridazinone compound

T2 sequence (Q14432 whole entry): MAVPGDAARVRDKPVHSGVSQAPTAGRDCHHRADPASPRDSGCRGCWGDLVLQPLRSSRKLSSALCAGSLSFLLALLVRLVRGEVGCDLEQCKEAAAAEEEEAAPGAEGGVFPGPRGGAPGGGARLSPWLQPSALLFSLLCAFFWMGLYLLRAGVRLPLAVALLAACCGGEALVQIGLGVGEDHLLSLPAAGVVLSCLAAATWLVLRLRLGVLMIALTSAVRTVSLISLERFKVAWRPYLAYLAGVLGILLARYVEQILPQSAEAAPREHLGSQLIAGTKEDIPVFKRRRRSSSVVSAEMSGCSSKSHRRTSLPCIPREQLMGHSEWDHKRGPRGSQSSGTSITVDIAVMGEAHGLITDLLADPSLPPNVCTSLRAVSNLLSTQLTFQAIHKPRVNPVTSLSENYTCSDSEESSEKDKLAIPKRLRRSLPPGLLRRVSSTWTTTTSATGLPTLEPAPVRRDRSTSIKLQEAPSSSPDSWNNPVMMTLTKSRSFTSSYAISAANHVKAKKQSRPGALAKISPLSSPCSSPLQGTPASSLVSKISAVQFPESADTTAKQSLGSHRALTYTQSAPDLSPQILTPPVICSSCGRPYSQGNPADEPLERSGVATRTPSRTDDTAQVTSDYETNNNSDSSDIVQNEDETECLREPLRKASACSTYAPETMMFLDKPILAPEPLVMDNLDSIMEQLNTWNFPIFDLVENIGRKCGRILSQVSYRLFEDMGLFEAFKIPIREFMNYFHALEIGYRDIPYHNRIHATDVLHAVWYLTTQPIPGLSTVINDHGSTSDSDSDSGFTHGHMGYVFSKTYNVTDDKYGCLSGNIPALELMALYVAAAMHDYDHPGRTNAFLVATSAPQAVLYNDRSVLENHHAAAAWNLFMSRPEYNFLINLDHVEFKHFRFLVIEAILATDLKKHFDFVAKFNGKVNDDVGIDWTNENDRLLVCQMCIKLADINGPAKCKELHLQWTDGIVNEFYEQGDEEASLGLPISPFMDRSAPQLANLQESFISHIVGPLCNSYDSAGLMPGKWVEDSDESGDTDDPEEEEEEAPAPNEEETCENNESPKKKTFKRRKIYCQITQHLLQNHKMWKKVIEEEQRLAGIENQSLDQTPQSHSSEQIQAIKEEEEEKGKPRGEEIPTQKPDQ

CC1CC(=O)NN=C1c1ccc(N)c([N+](=O)[O-])c1 (stereo not shown) [6-(4-Amino-3-nitro-phenyl)-5-methyl-4,5-dihydro-2H-pyridazin-3-one]
effect on PGE1-stimulated cAMP levels in platelets [1]: augments PGE1-induced cAMP levels in a dose-dependent manner | effect on PGE1-stimulated cAMP levels in platelets [1, 2]: augment PGE1-induced cAMP level increase in platelets in a dose-dependent manner | inhibition of human platelet PDE5 (human platelet PDE5; [2]): No significant inhibition | inhibition of human platelet PDE5 (human platelet PDE5; listed as pyridazinone compound): little inhibition | inhibition of SFLLR-induced platelet aggregation (platelets): potent inhibitor | pIC50 (human platelet PDE3): 7.82 | SFLLR-induced αIIbβ3 activation measured using PAC-1 antibodies (platelet GPIIbIIIa): inhibited

Reference: patent publication US7166612B2, “Methods for reducing platelet activation platelet aggregaton or thrombosis” (Beth Israel Deaconess Medical Center, priority 2001, dated 2007)
